Literature values, collected in patent US20160175482A1, “COMPOSITION AND DELIVERY SYSTEM” (LOCATE THERAPEUTICS LIMITED, priority 2013, published 2016).

**Q.** With `Cc1ccc(C)c(N=Nc2cc(C)c(N=Nc3c(O)ccc4ccccc34)cc2C)c1` [Oil Red-O] as the compound, how does the “log P” value read?
**A.** The value was 6.85.
